# Results as given in US20250304990A1, “HERBICIDE RESISTANCE” (SYNGENTA CROP PROTECTION AG, priority 2021, published 2025).
# “And” between values parts separate entries of the source, which are not always exact repeats. Equal values may be shown once.
# Experiments:
# [1] = tested on: D4291 (WT Arabidopsis thaliana HST) containing tobacco plant; test: Herbicide damage score after spraying, Example 3; type: in vivo; details: for Average percentage damage: D4291, mutation n.a., averaged across transgenic population; for tolerance to herbicide: overexpression of Arabidopsis HST gene (SEQ ID NO.14) in tobacco
# Experimental: (§1) In order to determine if the newly discovered mutations detailed in Example 1 confer resistance to HST inhibiting compounds when expressed in plants, GM tobacco lines are to be produced and tested with HST inhibiting compounds. Transgenic tobacco plants expressing the Arabidopsis HST gene with and without mutations were tested.
# (§2) Populations of transgenic tobacco comprising 20-30 transgenic events per plant transformation constructs were generated as described in Example 2. These lines were clonally propagated and 1 clone per event was sprayed with 500, 100 or 50 g ai/ha of compound 1+0.2% Genapol X080 with a spray volume of 200 L/Ha (“g ai/ha” refers to grams of active compound per hectare).
# (§3) Herbicidal damage was visually assessed across the population and a herbicide damage score given at 7 and 14 days. A score of 0 indicates no visible damage or stunting whereas a score of 100 indicates a complete death of the plant. 20 transgenic events (i.e. individual transgenic plants) from each GM tobacco line were transplanted to soil 1 week prior to spraying with HST inhibiting compounds. WT tobacco was included as a control.
# (§4) The values in Tables 8 to 14 below refer to percentage of damage to the tested plants and show the damage scores for 20 populations of plants expressing either Arabidopsis WT HST gene (SEQ ID NO. 14), the Arabidopsis HST mutated gene according to SEQ ID NO. 27, the Arabidopsis HST mutated gene according to SEQ ID NO. 28, the Arabidopsis HST mutated gene according to SEQ ID NO. 29, the Arabidopsis HST mutated gene according to SEQ ID NO. 30, or the Arabidopsis HST mutated gene according to SEQ ID NO. 31. A control population of wild-type Samsun tobacco was also assessed for herbicide damage. […] However the mutated versions of the HST gene carrying the F276I, V277A, F280I or F280L mutations (SEQ ID NOs: 27, 28, 30 or 31) clearly display increased tolerance.
# WT tobacco [2] = test: Herbicide damage score after spraying, Example 3; type: in vivo; details: WT tobacco control, per plant
# Experimental: as §1, §2, §3, §4
# [3] = tested on: D4294 (T278N mutant Arabidopsis thaliana HST) containing tobacco plant; test: Herbicide damage score after spraying, Example 3; type: in vivo; details: for Average percentage damage: D4294 T278N, averaged across transgenic population; for percentage of damage: D4294 AraHST V003 T278N, per GM event
# Experimental: as §1, §2, §3, §4
# [4] = tested on: D4295 (F280I mutant Arabidopsis thaliana HST) containing tobacco plant; test: Herbicide damage score after spraying, Example 3; type: in vivo; details: averaged across transgenic population
# Experimental: as §1, §2, §3, §4
# [5] = tested on: D4292 (F276I mutant Arabidopsis thaliana HST) containing tobacco plant; test: Herbicide damage score after spraying, Example 3; type: in vivo; details: averaged across transgenic population
# Experimental: as §1, §2, §3, §4
# [6] = tested on: D4293 (V277A mutant Arabidopsis thaliana HST) containing tobacco plant; test: Herbicide damage score after spraying, Example 3; type: in vivo; details: averaged across transgenic population
# Experimental: as §1, §2, §3, §4
# [7] = tested on: D4425 (F262I mutant Oryza sativa HST) containing tobacco plant; test: Herbicide damage score after spraying, Example 4; type: in vivo; details: averaged across transgenic population
# Experimental: as §1, with “were” for “are to be”, “Oryza sativa” for “Arabidopsis”
# (§5) Populations of transgenic tobacco comprising 20-30 transgenic events per plant transformation constructs were generated as described in Example 2. These lines were clonally propagated and 1 clone per event was sprayed with 500, 100 or 50 g ai/ha of compound 1+0.2% (w/v) Genapol X080 with a spray volume of 200 L/Ha. (“g ai/ha” refers to grams of active compound per hectare).
# as §3, with “control. The mutated genes are identified in Table 16 below.” for “control.”
# (§6) The values in Tables 17 to 23 below refer to percentage of damage to the tested plants and show the damage scores for 20 populations of plants expressing either Oryza sativa WT HST gene (SEQ ID NO. 18), the Oryza sativa HST mutated gene according to SEQ ID NO. 47, the Oryza sativa HST mutated gene according to SEQ ID NO. 48, the Oryza sativa HST mutated gene according to SEQ ID NO. 49, the Oryza sativa HST mutated gene according to SEQ ID NO. 50, or the Oryza sativa HST mutated gene according to SEQ ID NO. 51. A control population of wild-type Samsun tobacco was also assessed for herbicide damage. […] However the mutated versions of the HST gene carrying the F262I, V263A, […], or F266L mutations (SEQ ID NOs: 47, 48, 50 or 51) clearly display increased tolerance.
# [8] = tested on: D4424 (WT Oryza sativa HST) containing tobacco plant; test: Herbicide damage score after spraying, Example 4; type: in vivo; details: for Average percentage damage: D4424, mutation n.a., averaged across transgenic population; for tolerance to herbicide: overexpression of Oryza sativa HST gene (SEQ ID NO.18) in tobacco
# Experimental: as §1, with “were” for “are to be”, “Oryza sativa” for “Arabidopsis”
# as §5
# as §3, with “control. The mutated genes are identified in Table 16 below.” for “control.”
# as §6
# [9] = tested on: D4428 (F266I mutant Oryza sativa HST) containing tobacco plant; test: Herbicide damage score after spraying, Example 4; type: in vivo; details: averaged across transgenic population
# Experimental: as §1, with “were” for “are to be”, “Oryza sativa” for “Arabidopsis”
# as §5
# as §3, with “control. The mutated genes are identified in Table 16 below.” for “control.”
# as §6
# WT tobacco [10] = test: Herbicide damage score after spraying, Example 4; type: in vivo; details: WT tobacco (Example 4), per plant
# Experimental: as §1, with “were” for “are to be”, “Oryza sativa” for “Arabidopsis”
# as §5
# as §3, with “control. The mutated genes are identified in Table 16 below.” for “control.”
# as §6
# [11] = tested on: D4427 (T264N mutant Oryza sativa HST) containing tobacco plant; test: Herbicide damage score after spraying, Example 4; type: in vivo; details: for Average percentage damage: D4427 T264N, averaged across transgenic population; for percentage of damage: D4427 OsHST V003 T264N, per event
# Experimental: as §1, with “were” for “are to be”, “Oryza sativa” for “Arabidopsis”
# as §5
# as §3, with “control. The mutated genes are identified in Table 16 below.” for “control.”
# as §6
# [12] = tested on: D4429 (F266L mutant Oryza sativa HST) containing tobacco plant; test: Herbicide damage score after spraying, Example 4; type: in vivo; details: averaged across transgenic population
# Experimental: as §1, with “were” for “are to be”, “Oryza sativa” for “Arabidopsis”
# as §5
# as §3, with “control. The mutated genes are identified in Table 16 below.” for “control.”
# as §6
# [13] = tested on: D4426 (V263A mutant Oryza sativa HST) containing tobacco plant; test: Herbicide damage score after spraying, Example 4; type: in vivo; details: for Average percentage damage: D4426 V263A, averaged across transgenic population
# Experimental: as §1, with “were” for “are to be”, “Oryza sativa” for “Arabidopsis”
# as §5
# as §3, with “control. The mutated genes are identified in Table 16 below.” for “control.”
# as §6
# Cf-496-94 = test: Dose response test, growth in 96-well plates; type: cell-based, Chlorella fusca; details: Cf-496-94 (F275L); 2-fold dilutions from 100 ppm
# Experimental: (§7) Dose response tests with B5U were set-up in 96-well, flat bottomed plates. 200 μl medium was used in each well. 2 μl of 6 day old culture was added to each well, then 2 μl of DMSO or dilution of test compound were added to respective wells. 2-fold dilutions starting at 100 ppm were used per well. Plates were incubated at 25° C., 50 μmol/m^2/s, 16 hour photoperiod.
# (§8) This was assessed by a visual inspection of growth in the 96-well plate. The inhibitor concentration at which no growth is observed is then defined as the LD.
# (§9) Starting dose was 100 ppm and decreasing with 2-fold dilutions with C. fusca wt, the five HST mutants and the 10 compounds to which the wt is sensitive. Plates were incubated at 25° C., 50 μmol/m2/s, 16 hour photoperiod.
# Cf WT = test: Dose response test, growth in 96-well plates; type: cell-based, Chlorella fusca; details: Cf WT; 2-fold dilutions from 100 ppm
# Experimental: as §7, §8, §9
# Cf-496-19 = test: Dose response test, growth in 96-well plates; type: cell-based, Chlorella fusca; details: Cf-496-19 (F275I); 2-fold dilutions from 100 ppm
# Experimental: as §7, §8, §9
# Cf-496-28 = test: Dose response test, growth in 96-well plates; type: cell-based, Chlorella fusca; details: Cf-496-28 (V276A); 2-fold dilutions from 100 ppm
# Experimental: as §7, §8, §9
# Cf-496-15 = test: Dose response test, growth in 96-well plates; type: cell-based, Chlorella fusca; details: Cf-496-15 (T277N); 2-fold dilutions from 100 ppm
# Experimental: as §7, §8, §9
# Cf-496-8 = test: Dose response test, growth in 96-well plates; type: cell-based, Chlorella fusca; details: Cf-496-8 (M278L_F279I); 2-fold dilutions from 100 ppm
# Experimental: as §7, §8, §9
compound,measurement,setting,value
"Cc1nc2ccc(CCc3c(Cl)ccc(F)c3-c3c(O)c(C)nn(C)c3=O)cc2o1 [B8a, 4-[3-chloro-6-fluoro-2-[2-(2-methyl-1,3-benzoxazol-6-yl)ethyl]phenyl]-5-hydroxy-2,6-dimethyl-pyridazin-3-one]",Average percentage damage,[1]; T4 B8a 50 gai/ha,64%
same,tolerance to herbicide,[1],does not increase tolerance
same,percentage of damage,WT tobacco [2]; T4 B8a 50 gai/ha,85% and 95% and 90%
same,Average percentage damage,[3]; T4 B8a 50 gai/ha,90%
same,Average percentage damage,[4]; T4 B8a 50 gai/ha,30%
same,Average percentage damage,[5]; T4 B8a 50 gai/ha,33%
same,Average percentage damage,[6]; T4 B8a 50 gai/ha,16%
same,Average percentage damage,[7]; T4 B8a 50 gai/ha,28%
same,Average percentage damage,[8]; T4 B8a 50 gai/ha,36%
same,tolerance to herbicide,[8],does not increase tolerance
same,Average percentage damage,[9]; T4 B8a 50 gai/ha,27%
same,percentage of damage,WT tobacco [10]; T4 B8a 50 gai/ha,95% and 96%
same,Average percentage damage,[11]; T4 B8a 50 gai/ha,46%
same,Average percentage damage,[12]; T4 B8a 50 gai/ha,22%
same,Average percentage damage,[13]; T4 B8a 50 gai/ha,14%
"Cc1nn(C)c(=O)c(-c2c(F)ccc(Cl)c2CCc2ccnc(F)c2)c1O [B5a, 4-[3-chloro-6-fluoro-2-[2-(2-fluoro-4-pyridyl)ethyl]phenyl]-5-hydroxy-2,6-dimethyl-pyridazin-3-one]",Average percentage damage,[1]; T2 B5a 100 gai/ha,89%
same,tolerance to herbicide,[1],does not increase tolerance
same,percentage of damage,WT tobacco [2]; T2 B5a 100 gai/ha,95% and 90% and 85%
same,percentage of damage,[3]; T2 B5a 100 gai/ha,100% and 95% and 90% and 99%
same,Average percentage damage,[3]; T2 B5a 100 gai/ha,96%
same,Average percentage damage,[4]; T2 B5a 100 gai/ha,60%
same,Average percentage damage,[5]; T2 B5a 100 gai/ha,45%
same,Average percentage damage,[6]; T2 B5a 100 gai/ha,28%
same,Average percentage damage,[7]; T2 B5a 100 gai/ha,69%
same,Average percentage damage,[8]; T2 B5a 100 gai/ha,93%
same,percentage of damage,"[8]; T2 B5a 100 gai/ha, D4424 pBin TMV OsHST, per event",90% and 96% and 95% and 97% and 98% and 85% and 80%
same,tolerance to herbicide,[8],does not increase tolerance
same,Average percentage damage,[9]; T2 B5a 100 gai/ha,75%
same,percentage of damage,WT tobacco [10]; T2 B5a 100 gai/ha,90% and 95%
same,percentage of damage,[11]; T2 B5a 100 gai/ha,95% and 98% and 80% and 97% and 96% and 99% and 100%
same,Average percentage damage,[11]; T2 B5a 100 gai/ha,96%
same,Average percentage damage,[12]; T2 B5a 100 gai/ha,42%
same,Average percentage damage,[13]; T2 B5a 100 gai/ha,22%
"Cc1nn(C)c(=O)c(-c2c(F)ccc(Cl)c2CCc2ccccc2C(F)(F)F)c1O [B5m, 4-[3-chloro-6-fluoro-2-[2-[2-(trifluoromethyl)phenyl]ethyl]phenyl]-5-hydroxy-2,6-dimethyl-pyridazin-3-one]",dose response to HST inhibiting compounds,Cf-496-94,>100 ppm
same,dose response to HST inhibiting compounds,Cf WT,12.5 ppm
same,dose response to HST inhibiting compounds,Cf-496-19,>100 ppm
same,dose response to HST inhibiting compounds,Cf-496-28,>100 ppm
same,dose response to HST inhibiting compounds,Cf-496-15,>100 ppm
same,dose response to HST inhibiting compounds,Cf-496-8,>100 ppm
"Cc1nn(C)c(=O)c(-c2c(F)ccc(Cl)c2CCc2cnn(C)c2)c1O [B5b, 4-[3-chloro-6-fluoro-2-[2-(1-methylpyrazol-4-yl)ethyl]phenyl]-5-hydroxy-2,6-dimethyl-pyridazin-3-one]",Average percentage damage,[1]; T3 B5b 100 gai/ha,47%
same,tolerance to herbicide,[1],does not increase tolerance
same,percentage of damage,WT tobacco [2]; T3 B5b 100 gai/ha,90% and 95%
same,percentage of damage,[3]; T3 B5b 100 gai/ha,100% and 75% and 95% and 98% and 99% and 90%
same,Average percentage damage,[3]; T3 B5b 100 gai/ha,95%
same,Average percentage damage,[4]; T3 B5b 100 gai/ha,29%
same,Average percentage damage,[5]; T3 B5b 100 gai/ha,26%
same,Average percentage damage,[6]; T3 B5b 100 gai/ha,15%
same,Average percentage damage,[7]; T3 B5b 100 gai/ha,36%
same,Average percentage damage,[8]; T3 B5b 100 gai/ha,82%
same,tolerance to herbicide,[8],does not increase tolerance
same,Average percentage damage,[9]; T3 B5b 100 gai/ha,34%
same,percentage of damage,WT tobacco [10]; T3 B5b 100 gai/ha,95% and 96% and 97% and 93% and 90%
same,percentage of damage,[11]; T3 B5b 100 gai/ha,96% and 98% and 95% and 97% and 99% and 90%
same,Average percentage damage,[11]; T3 B5b 100 gai/ha,96%
same,Average percentage damage,[12]; T3 B5b 100 gai/ha,18%
same,percentage of damage,"[13]; T3 B5b 100 gai/ha, D4426 OsHST V002 V263A, per event",5% and 0% and 10% and 3%
same,Average percentage damage,[13]; T3 B5b 100 gai/ha,4%
